The target of one test is T1, Cathepsin K (Homo sapiens, UniProt P43235).
T1 sequence (P43235 whole entry): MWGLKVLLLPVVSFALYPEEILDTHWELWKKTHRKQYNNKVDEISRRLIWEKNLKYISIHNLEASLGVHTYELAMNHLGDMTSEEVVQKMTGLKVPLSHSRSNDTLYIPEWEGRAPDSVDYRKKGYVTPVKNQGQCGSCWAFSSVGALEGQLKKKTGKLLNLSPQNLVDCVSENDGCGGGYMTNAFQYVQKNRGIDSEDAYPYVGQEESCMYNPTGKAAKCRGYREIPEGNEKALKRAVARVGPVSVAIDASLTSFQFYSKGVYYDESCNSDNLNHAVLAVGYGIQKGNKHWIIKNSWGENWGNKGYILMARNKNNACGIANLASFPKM
Kind of test: In vitro inhibitory activity against human cathepsin K, using 2 uM of Z -Leu-Arg-AMC as substrate.

The target in a further test is Cathepsin B (Homo sapiens, UniProt P07858). Kind of test: In vitro inhibitory activity against human cathepsin B, using 2 uM of Z -Leu-Arg-AMC as substrate.
A further test concerns the target Cathepsin S (Homo sapiens, UniProt P25774). The test can be described thus: In vitro inhibitory activity against human cathepsin S, using 2 uM of Z -Leu-Arg-AMC as substrate.
For the next test, the target named is Procathepsin L (Homo sapiens, UniProt P07711). Kind of test: In vitro inhibitory activity against human cathepsin L, using 2 uM of Z -Leu-Arg-AMC as substrate.
A further test is filed under the species Bos taurus. Kind of test: cells.

The structures appear in SMILES notation.

Chain of Procathepsin L (P07711 whole entry): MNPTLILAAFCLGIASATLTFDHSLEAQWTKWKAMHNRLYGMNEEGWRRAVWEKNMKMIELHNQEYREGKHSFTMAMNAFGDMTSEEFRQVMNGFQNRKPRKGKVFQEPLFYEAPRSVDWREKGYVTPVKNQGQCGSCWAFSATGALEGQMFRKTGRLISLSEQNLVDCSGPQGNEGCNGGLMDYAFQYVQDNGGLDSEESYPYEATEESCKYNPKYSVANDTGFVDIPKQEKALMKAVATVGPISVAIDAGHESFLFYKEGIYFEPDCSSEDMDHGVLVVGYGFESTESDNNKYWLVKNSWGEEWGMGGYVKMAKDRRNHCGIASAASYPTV
Chain of Cathepsin S (P25774 whole entry): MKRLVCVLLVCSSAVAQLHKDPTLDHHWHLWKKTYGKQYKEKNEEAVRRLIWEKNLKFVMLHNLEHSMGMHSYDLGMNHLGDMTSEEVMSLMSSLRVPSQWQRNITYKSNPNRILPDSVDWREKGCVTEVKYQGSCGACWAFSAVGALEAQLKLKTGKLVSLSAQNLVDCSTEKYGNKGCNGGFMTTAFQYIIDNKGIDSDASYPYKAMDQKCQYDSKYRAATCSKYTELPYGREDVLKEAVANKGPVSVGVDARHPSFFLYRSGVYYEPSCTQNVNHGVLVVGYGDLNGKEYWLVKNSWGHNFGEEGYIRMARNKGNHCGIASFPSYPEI
Description for Bos taurus: In vitro Bone resorption; measuring degradation of bovine bone by isolated osteoclasts

For orientation: IC50 means the concentration that gives 50% inhibition. Read a high IC50 as a need for much substance. For `CC(C)CC(C(=O)NCC#N)c1ccc(-c2ccccc2)cc1` (stereo unspecified), the half-maximal inhibitory concentration (IC50) is 790 nM on Cathepsin K, over 10000 nM at Cathepsin B, 3340 nM against Cathepsin S and over 10000 nM on Procathepsin L.
Regarding `CC(C)CC(C(=O)NCC#N)c1cccc(-c2ccc(N3CCN(CCO)CC3)cc2)c1` (stereo unspecified), the IC50 came out at 12 nM at Cathepsin K, 3340 nM at Cathepsin B, 609 nM against Cathepsin S and 140 nM against Procathepsin L.
As to `CC(C)CC(C(=O)NCC#N)c1cccc(-c2ccc(C34CCN(CC3)CC4)cc2)c1` (stereo unspecified), the 50% inhibitory concentration (IC50) turned out to be 37 nM against Cathepsin K; 2230 nM against Cathepsin B; 1990 nM at Cathepsin S; 198 nM in the test filed under Bos taurus; 2240 nM against Procathepsin L.
`CC(C)CC(C(=O)NCC#N)c1cccc(-c2ccc3cc[nH]c3c2)c1` (stereo unspecified): the half-maximal inhibitory concentration (IC50) was 291 nM against Cathepsin K, over 10000 nM on Cathepsin B, 1260 nM against Cathepsin S and 2780 nM in the test listed under Bos taurus.
Regarding `CN1CCN(c2ccc(-c3cccc(C(CC4CCC4)C(=O)NCC#N)c3)cc2)CC1` (stereo unspecified), the IC50 at Cathepsin K is 62 nM; at Cathepsin B, 8050 nM; against Cathepsin S, 2310 nM; against Procathepsin L it was over 10000 nM.
For `CCCC(C(=O)NCC#N)c1cccc(-c2ccc(N3CCN(C)CC3)cc2)c1` (stereo unspecified), in that order: 87 nM, over 10000 nM, over 10000 nM and over 10000 nM.
Turning to `CC(C)CC(C(=O)NCC#N)c1cccc(-c2ccccc2)c1` (stereo unspecified), the IC50 was 56 nM against Cathepsin K; over 10000 nM on Cathepsin B; 1580 nM on Cathepsin S; 3560 nM in the test filed under Bos taurus; 498 nM against Procathepsin L.
For the molecule `CC[C@H](C)CC(C(=O)NCC#N)c1cccc(-c2ccc(N3CCN(C)CC3)cc2)c1` (stereo partly specified), the half-inhibitory concentration (IC50) against Cathepsin K is 51 nM; at Cathepsin B, 5790 nM; on Cathepsin S it was over 10000 nM; at Procathepsin L it was over 10000 nM.
Take `CC(C)CC(C(=O)NCC#N)c1cccc(-c2ccc(S(C)(=O)=O)cc2)c1` (stereo unspecified): the IC50 against Cathepsin K was 1230 nM; against Cathepsin B, over 10000 nM; against Cathepsin S, 6620 nM; on Procathepsin L, over 10000 nM.
With `CC(C)CC(C(=O)NCC#N)c1cccc(-c2ccc(N3CCNCC3)cc2)c1` (racemic), the IC50 against Cathepsin K was 9 nM; on Cathepsin B it was 2410 nM; against Cathepsin S, 1240 nM; in the test filed under Bos taurus, 162 nM; at Procathepsin L it was 4800 nM.
Consider `CC(C)CC(C(=O)NCC#N)c1cccc(-c2ccc(C3CNCCN3)cc2)c1` (stereo in doubt; 44), for which the concentration for half-maximal inhibition (IC50) turned out to be 58 nM against Cathepsin K, 1250 nM against Cathepsin B, 521 nM on Cathepsin S and 338 nM against Procathepsin L.
Take `CC(C)CC(C(=O)NCC#N)c1cccc(-c2ccc(N3CCN(CC(C)(C)O)CC3)cc2)c1` (stereo unspecified): the IC50 is 6 nM on Cathepsin K; 6370 nM at Cathepsin B; over 10000 nM at Cathepsin S; 142 nM in the test filed under Bos taurus; 9550 nM against Procathepsin L.
Regarding `CC(C)CC(C(=O)NCC#N)c1cccc(-c2ccc(-c3ccncc3)cc2)c1` (stereo unspecified), the IC50 against Cathepsin K was found to be 97 nM; against Cathepsin B, 3330 nM; on Cathepsin S, 1360 nM; in the test filed under Bos taurus, 1240 nM; against Procathepsin L, 8390 nM.
In the case of `CC(C)CC(C(=O)NCC#N)c1cccc(-c2ccc(N3CCN(CC(C)(C)N)CC3)cc2)c1` (stereo unspecified), the IC50 against Cathepsin K is 16 nM; at Cathepsin B it was over 10000 nM; against Cathepsin S it was 1430 nM; in the test filed under Bos taurus it was 552 nM; at Procathepsin L, over 10000 nM.
For the molecule `CC(C)CC(C(=O)NCC#N)c1cccc(-c2ccc(C(N)=O)cc2)c1` (stereo unspecified), the IC50 is 1020 nM against Cathepsin K, over 10000 nM against Cathepsin B, 1370 nM against Cathepsin S and over 10000 nM against Procathepsin L.
As for `CN1CCN(c2ccc(-c3cccc(C(CC4CC4)C(=O)NCC#N)c3)cc2)CC1` (stereo unspecified), the half-maximal inhibitory concentration (IC50) is 65 nM against Cathepsin K, 3430 nM on Cathepsin B, 6600 nM against Cathepsin S and over 10000 nM against Procathepsin L.
On the same counts, the results for `CC(C)CC(C(=O)N(CC#N)OC(=O)C(F)(F)F)c1cccc(-c2ccncc2)c1` (stereo unspecified) are 150 nM, over 10000 nM, 1750 nM and 5780 nM.
Take `CC(C)C[C@@H](C(=O)NCC#N)c1cccc(-c2ccc(N3CCN(C)CC3)cc2)c1`: the 50% inhibitory concentration (IC50) against Cathepsin K came to 6 nM; against Cathepsin B, 2600 nM; on Cathepsin S, 3930 nM; in the test filed under Bos taurus, 96 nM; on Procathepsin L, 6270 nM.
Consider `CC(C)CC(C(=O)NCC#N)c1cccc(-c2ccc(N3CCOCC3)cc2)c1` (stereo unspecified), for which the half-inhibitory concentration (IC50) at Cathepsin K is 638 nM; against Cathepsin B it was 1740 nM; on Cathepsin S, 9420 nM; on Procathepsin L, 1590 nM.
As for `CC(C)C[C@@H](C(=O)NCC#N)c1cccc(-c2ccc(N3CCNCC3)cc2)c1`, the IC50 is 3 nM on Cathepsin K; 3950 nM on Cathepsin B; 2010 nM against Cathepsin S; 95 nM in the test listed under Bos taurus; 3720 nM against Procathepsin L.
Consider `CC(C)CC(NC(=O)c1ccccc1)C(=O)NCC#N` (stereo unspecified), for which the values for the IC50 against Cathepsin K, on Cathepsin B and at Cathepsin S were 51 nM, 1900 nM and 41 nM, respectively.
For the molecule `CC(C)CC(C(=O)NCC#N)c1cccc(-c2ccc3[nH]ccc3c2)c1` (racemic), the half-inhibitory concentration (IC50) was 52 nM on Cathepsin K; over 10000 nM on Cathepsin B; 922 nM against Cathepsin S; 249 nM in the test listed under Bos taurus; over 10000 nM against Procathepsin L.
With `CC(C)CC(C(=O)NCC#N)c1csc(-c2ccccc2)n1` (stereo unspecified), the IC50 against Cathepsin K is 1460 nM; against Cathepsin B it was over 10000 nM; on Cathepsin S, over 10000 nM; on Procathepsin L, over 10000 nM.
With `CC(C)CC(C(=O)NCC#N)c1cccc(-c2ccc(C3CCNCC3)cc2)c1` (stereo unspecified), the half-maximal inhibitory concentration (IC50) worked out at 18 nM at Cathepsin K; 1080 nM against Cathepsin B; 1420 nM against Cathepsin S; 489 nM in the test listed under Bos taurus; 2750 nM on Procathepsin L.
Consider `CN1CCN(c2ccc(-c3cccc(CC(=O)NCC#N)c3)cc2)CC1`, for which the IC50 against Cathepsin K, at Cathepsin B, against Cathepsin S and against Procathepsin L was over 10000 nM throughout.
For the molecule `CC(C)CC(C(=O)NCC#N)c1cccc(-c2cncnc2)c1` (stereo unspecified), the half-inhibitory concentration (IC50) at Cathepsin K was 1040 nM; on Cathepsin B, over 10000 nM; on Cathepsin S, over 10000 nM; at Procathepsin L it was over 10000 nM.
On to `CC(C)CC(C(=O)NCC#N)c1cccc(-c2cccnc2)c1` (stereo unspecified), for which the IC50 against Cathepsin K is 803 nM; against Cathepsin B, over 10000 nM; at Cathepsin S, 8040 nM; against Procathepsin L, 5950 nM.
The molecule `CC(C)C[C@@H](C(=O)NCC#N)c1cccc(-c2ccc3[nH]ccc3c2)c1` yielded a half-maximal inhibitory concentration (IC50) at Cathepsin K of 8 nM. That is a single-digit nanomolar value.
In the case of `CN1CCN(c2ccc(-c3cccc(C(Cc4ccccc4)C(=O)NCC#N)c3)cc2)CC1` (stereo unspecified), the IC50 against Cathepsin K is 1400 nM; at Cathepsin B, over 10000 nM; against Cathepsin S, over 10000 nM; at Procathepsin L, 3910 nM.
Consider `CC(C)C[C@H](C(=O)NCC#N)c1cccc(-c2ccc3[nH]ccc3c2)c1`, for which, at Cathepsin K, the IC50 is 79 nM.
Regarding `CC(C)CC(C(=O)NCC#N)c1cccc(-c2ccccn2)c1` (stereo unspecified), the IC50 is 488 nM on Cathepsin K, over 10000 nM against Cathepsin B, over 10000 nM against Cathepsin S and 5580 nM against Procathepsin L.
As to `CC(C)CC(C(=O)NCC#N)c1cccc(-c2ccc(N3CCN(C(=O)OC(C)(C)C)CC3)cc2)c1` (stereo unspecified), the IC50 at Cathepsin K was 922 nM; against Cathepsin B, over 10000 nM; at Cathepsin S, 1300 nM; on Procathepsin L, over 10000 nM.

These data come from ChEMBL document CHEMBL1145055, “A novel class of nonpeptidic biaryl inhibitors of human cathepsin K” (J Med Chem, 2003).
